Assay results published in PubChem BioAssay (NCI).
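Step 1: Grow cells in 96-well plates. Step 2: Expose to compound for 48 hours at 5 concentrations. Step 3: Interpolate endpoints linearly; if unreached, use highest concentration. TGI: concentration producing complete growth inhibition.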

Tested on: RXF-631 renal
Experiment: inhibition of tumour cell growth, NCI panel, 48 h

NCCCNCCSSCc1ccccc1CSSCCNCCCN
TGI: > 100 µM
